In US20080166432A1, “Biotherapeutics for Mitigation of Health Disorders from Terminalia Arjuna” (Avestha Gengraine Technologies Pvt. Ltd., priority 2003, published 2008):

What was measured:
[1] = DPPH scavenging effect (antioxidant assay); format: physicochemical; conditions: T. arjuna extracts from different plant parts
Source text: This method is based on the reduction of DPPH, a stable free radical. Due to the odd electron of DPPH, it gives a strong absorption maximum at 517 nm by visible spectroscopy (purple color). As the odd electron of the radical becomes paired off in the presence of hydrogen donor, that is, a free-radical scavenging antioxidant, the absorption strength is decreased, and the resulting de-coloration is stoichiometric with respect to the number of electrons captured. This reaction has widely been used to evaluate the anti-oxidative activity of food and plant extracts.
Reactions were performed in 1.25 ml of methanol containing 0.5 mM freshly made DPPH and various amounts of the extract. Reaction mixtures were incubated at 37° C. for 30 min, and the absorbance at 517 nm was measured. This assay was done in triplicate.
Oxidant (DPPH) inhibitory activity (%)={(A517Control−A517 Sample)/A517Control}×100
IC50 is defined as the amount of extract required for 50% inhibition in the levels of free radical. Table 25 gives the IC50 values of Terminalia arjuna bark and fruit extracts.

endothelial cells = conditions: ascorbate pretreatment; measured as citrulline formation and cGMP accumulation; cited from earlier work
[2] = system: Streptococcus fecalis ATCC-8043; test: Antibacterial assay, agar streak method; format: cell-based; parameters: key: +++: abundant growth; ++: growth; +: less growth; −: no growth; conditions: S. fecalis
Source text: (§1) Testing of anti-microbial potential was done against following bacterial strains (Gram negative: Escherichia coli ATCC-10536, Pseudomonas aeruginosa ATCC-9027, Klebsiella pneumoniea ATCC-10031, Bordetella bronchiseptica ATCC-4617; Gram Positive: Staphylococcus aureus ATCC-29737, Streptococcus fecalis ATCC-8043, Micrococcus luteus ATCC-9341, Bacillus subtilis ATCC-6633, Bacillus cereus ATCC-11778, Bacillus pumilus ATCC-14884, Staphylococcus epidermidis ATCC-6358) were selected from the microorganisms given in United states Pharmacopoeia (2000), British Pharmacopoeia (1993) and Indian Pharmacopoeia (1996) for anti-microbial assays.
(§2) A stock of 100 mg/ml of Ethyl acetate, Acetone, Ethanol, Methanol and Water successive extract from Terminalia arjuna bark and direct ethanol and successive water extracts from Terminalia arjuna fruit was dissolved in DMSO. To determine the antibacterial potential extracts at a concentration of 5 mg/ml and 1 mg/ml were added to 30 ml of luke warm Luria Bertaini agar medium. After the medium was solidified, overnight grown 11 bacterial strains mentioned were taken in loop and streaked on the medium. The plates were incubated at 37° C. for 24 hrs after which the bacterial growth was monitored. Suitable controls were maintained with the extracts and the microorganisms. Luria Bertaini agar medium with and without 1.5% DMSO were used as negative control set, Ciprofloxacin (2 μg/ml) served as positive control.

[3] = system: Klebsiella pneumoniea ATCC-10031; test: Antibacterial assay, agar streak method; format: cell-based; parameters: key: +++: abundant growth; ++: growth; +: less growth; −: no growth; conditions: K. pneumoniea
Source text: as §1, §2

[4] = system: Bacillus subtilis ATCC-6633; test: Antibacterial assay, agar streak method; format: cell-based; parameters: key: +++: abundant growth; ++: growth; +: less growth; −: no growth; conditions: B. subtilis; LB + Ciprofloxacin 2 μg/ml
Source text: as §1, §2

[5] = system: Escherichia coli ATCC-10536; test: Antibacterial assay, agar streak method; format: cell-based; parameters: key: +++: abundant growth; ++: growth; +: less growth; −: no growth; conditions: E. coli
Source text: as §1, §2

[6] = system: Staphylococcus aureus ATCC-29737; test: Antibacterial assay, agar streak method; format: cell-based; parameters: key: +++: abundant growth; ++: growth; +: less growth; −: no growth; conditions: S. aureus
Source text: as §1, §2

[7] = system: Staphylococcus epidermidis ATCC-6358; test: Antibacterial assay, agar streak method; format: cell-based; parameters: key: +++: abundant growth; ++: growth; +: less growth; −: no growth; conditions: S. epidermidis
Source text: as §1, §2

[8] = system: Bordetella bronchiseptica ATCC-4617; test: Antibacterial assay, agar streak method; format: cell-based; parameters: key: +++: abundant growth; ++: growth; +: less growth; −: no growth; conditions: B. bronchiseptica
Source text: as §1, §2

[9] = system: Pseudomonas aeruginosa ATCC-9027; test: Antibacterial assay, agar streak method; format: cell-based; parameters: key: +++: abundant growth; ++: growth; +: less growth; −: no growth; conditions: P. aeruginosa
Source text: as §1, §2

[10] = system: Micrococcus luteus ATCC-9341; test: Antibacterial assay, agar streak method; format: cell-based; parameters: key: +++: abundant growth; ++: growth; +: less growth; −: no growth; conditions: M. luteus
Source text: as §1, §2

[11] = system: Bacillus pumilus ATCC-14884; test: Antibacterial assay, agar streak method; format: cell-based; parameters: key: +++: abundant growth; ++: growth; +: less growth; −: no growth; conditions: B. pumilus
Source text: as §1, §2

[12] = system: Bacillus cereus ATCC-11778; test: Antibacterial assay, agar streak method; format: cell-based; parameters: key: +++: abundant growth; ++: growth; +: less growth; −: no growth; conditions: B. cereus
Source text: as §1, §2

[13] = LB + Ciprofloxacin 2 μg/ml (Table 27)

In the case of O=C1O[C@H]([C@@H](O)CO)C(O)=C1O [Ascorbate, ascorbic acid], the “IC50 values of antioxidation potential” value [1] is listed as 26 µg/mL and the “increase of the cellular production of NO” value (endothelial cells) is listed as 3 fold.
With O=C(O)c1cn(C2CC2)c2cc(N3CCNCC3)c(F)cc2c1=O [Ciprofloxacin] the bacterial growth ([2]; LB + Ciprofloxacin 2 μg/ml) was “−”, the bacterial growth [2, 13] was “−” and the bacterial growth ([3]; LB + Ciprofloxacin 2 μg/ml) was “−”. The bacterial growth [3, 13] was “−”, the bacterial growth [4] was “−” and the bacterial growth ([5]; LB + Ciprofloxacin 2 μg/ml) was “−”. For the same compound, the bacterial growth [5, 13] was “−”, the bacterial growth ([6]; LB + Ciprofloxacin 2 μg/ml) was “−” and the bacterial growth [6, 13] was “−”. The bacterial growth ([7]; LB + Ciprofloxacin 2 μg/ml) was “−”, the bacterial growth [7, 13] was “−” and the bacterial growth ([8]; LB + Ciprofloxacin 2 μg/ml) was “−”. The bacterial growth [8, 13] was “−”, the bacterial growth ([9]; LB + Ciprofloxacin 2 μg/ml) was “−” and the bacterial growth [9, 13] was “−”. For the same compound, the bacterial growth ([10]; LB + Ciprofloxacin 2 μg/ml) was “−”, the bacterial growth [10, 13] was “−” and the bacterial growth ([11]; LB + Ciprofloxacin 2 μg/ml) was “−”. For the same compound, the bacterial growth [11, 13] was “−”, the bacterial growth ([12]; LB + Ciprofloxacin 2 μg/ml) was “−” and the bacterial growth [12, 13] was “−”.
